Results on 3 molecules are retold here after patent US7314879B2, “Melanocortin receptor agonists” (Eli Lilly and Company, priority 2002, dated 2008).

The target in assay [1] is T1, MC4 (Homo sapiens, UniProt P32245).
T1 construct: expressed in transfected cells; host or cells: HEK 293
Kind of assay: Functional agonist assay in HEK 293 cells stably expressing melanocortin receptor (luciferase reporter / whole cell cAMP accumulation). Format: cell-based. Conditions: for EC50: agonist potency, concentration giving half maximal stimulation; for % Rel. Eff.: relative efficacy compared to NDP-alpha-MSH defined as 100% agonist. An excerpt:
Functional cell based assays are developed to discriminate agonists and antagonists.
Agonist Assay: HEK 293 cells stably expressing a human melanocortin receptor (see e.g., Yang, et al., Mol-Endocrinol., 11(3): 274-80, 1997) are dissociated from tissue culture flasks using a trypsin/EDTA solution (0.25%; Life Technologies, Rockville, Md.). Cells are collected by centrifugation and resuspended in DMEM (Life Technologies, Rockville, Md.) supplemented with 1% L-glutamine and 0.5% fetal bovine serum. Cells are counted and diluted to 4.5×10^5/ml.
A compound of formula I is diluted in dimethylsulfoxide (DMSO) (3×10^−5 to 3×10^−10 M final concentrations) and 0.05 volume of compound solution is added to 0.95 volumes of cell suspension; the final DMSO concentration is 0.5%. After incubation at 37° C./5% CO2 for 5 hours, cells are lysed by addition of luciferin solution (50 mM Tris, 1 mM MgCl2, 0.2% Triton-X100, 5 mM DTT, 500 micromolar Coenzyme A, 150 micromolar ATP, and 440 micromolar luciferin) to quantify the activity of the reporter gene luciferase, an indirect measurement of intracellular cAMP production.
Luciferase activity is measured from the cell lysate using a Wallac Victor 2 luminometer. The amount of lumen production which results from a compound of formula I is compared to that amount of lumens produced in response to NDP-alpha-MSH, defined as a 100% agonist, to obtain the relative efficacy of a compound. The EC50 is defined as the compound concentration that results in half maximal stimulation, when compared to its own maximal level of stimulation.
In the agonist assay, compounds are prepared as 10 mM and NDP-aMSH (control) as 33.3 μM stock solutions in 100% DMSO. These are serially diluted in 100% DMSO. The compound plate is further diluted 1:200 in compound dilution buffer (HBSS-092, 1 mM Ascorbic Acid, 1 mM IBMX, 0.6% DMSO, 0.1% BSA). The final concentration range being 10 μM-100 pM for compound and 33.33 nM-0.3 pM for control in 0.5% DMSO. Transfer 20 μl from this plate into four PET 96-well plates (all assays are performed in duplicate for each receptor).
HEK 293 cells stably transfected with the MC3R and MC4R were grown in DMEM containing 10% FBS and 1% Antibiotic/Antimycotic Solution. On the day of the assay the cells were dislodged with enzyme free cell dissociation solution and resuspended in cell buffer (HBSS-092, 0.1% BSA, 10 mM HEPES) at 1×e6 cells/ml. Add 40 μl of cells/well to the PET 96-well plates containing 20 ul diluted compound and control. Incubate @ 37° C. in a waterbath for 20 minutes. Stop the assay by adding 50 μl Quench Buffer (50 mM Na Acetate, 0.25% Triton X-100).
Radioligand binding assays were run in SPA buffer (50 mM Sodium Acetate, 0.1% BSA). The beads, antibody and radioligand were diluted in SPA buffer to provide sufficient volume for each 96-well plate. To each quenched assay well was added 100 ul cocktail containing 33.33 ul of beads, 33.33 μl antibody and 33.33 μl ^125 I-cAMP. This was based on a final concentration of 6.3 mg/ml beads, 0.65% anti-goat antibody and 61 pM of ^125I-cAMP (containing 25000-30000 CPM) in a final assay volume of 210 μl. The plates were counted in a Wallac MicroBeta counter after a 12-hour incubation.
The data was converted to pmoles cAMP using a standard curve assayed under the same conditions. The data was analyzed using Activity Base software to generate agonist potencies (EC50) and percent relative efficacy data to NDP-aMSH.

The target of assay [2] is T1, MC4. Briefly: Radioligand binding assay: competitive inhibition of 125I-NDP-alpha-MSH binding to membranes of stably transfected HEK 293 cells. Conditions: 125I-NDP-alpha-MSH competition; Ki from IC50 by Cheng-Prusoff equation. The protocol: The radioligand binding assay is used to identify competitive inhibitors of ^125I-NDP-alpha-MSH binding to cloned human MCRs using membranes from stably transfected human embryonic kidney (HEK) 293 cells.
HEK 293 cells transfected with human or rat melanocortinin receptors are grown either as adherent monolayers or suspension culture. Monolayer cells are grown in roller bottle cultures at 37° C. and 5% CO2/air atmosphere in a 3:1 mixture of Dulbecco's modified Eagle medium (DMEM) and Ham's F12 containing 25 mM L-glucose, 100 units/ml penicillin G, 100 microgram/ml streptomyocin, 250 nanogram/ml amphoterin B, 300 microgram/ml genticin and supplemented with 5% fetal bovine serum. Monolayer cells are adapted to suspension culture (Berg et al., Biotechniques Vol. 14, No.6, 1993) and are grown in spinner or shaker flasks (37° C. and 7.5% CO2/air overlay) in a modified DME/F12 medium containing 0.1 mM CaCl2, 2% equine serum and 100 microgram/ml sodium heparin (to prevent cell-cell aggregation). Cells are harvested by centrifugation, washed in PBS, and pellets are stored frozen at −80° C. until membrane preparations.
The cell pellets are resuspended in 10 volumes of membrane preparation buffer (i.e., 1 g pellet to 10 ml buffer) having the following composition: 50 mM Tris pH 7.5 @ 4° C., 250 mM sucrose, 1 mM MgCl2, Complete® EDTA-free protease inhibitor tablet (Boehringer Mannheim), and 24 micrograms/ml DNase I (Sigma, St. Louis, Mo.). The cells are homogenized with a motor-driven dounce using 20 strokes, and the homogenate is centrifuged at 38,000×g at 4° C. for 40 minutes. […]
Solutions of a compound of formula I (300 picomolar to 30 micromolar) or unlabelled NDP-alpha-MSH (1 picomolar to 100 nanomolar) are added to 150 microliters of membrane binding buffer to yield final concentrations (listed in parantheses). […] The radioactivity is quantified in a Wallac Trilux Microplate Scintillation counter. […]

T1 sequence (P32245 whole entry): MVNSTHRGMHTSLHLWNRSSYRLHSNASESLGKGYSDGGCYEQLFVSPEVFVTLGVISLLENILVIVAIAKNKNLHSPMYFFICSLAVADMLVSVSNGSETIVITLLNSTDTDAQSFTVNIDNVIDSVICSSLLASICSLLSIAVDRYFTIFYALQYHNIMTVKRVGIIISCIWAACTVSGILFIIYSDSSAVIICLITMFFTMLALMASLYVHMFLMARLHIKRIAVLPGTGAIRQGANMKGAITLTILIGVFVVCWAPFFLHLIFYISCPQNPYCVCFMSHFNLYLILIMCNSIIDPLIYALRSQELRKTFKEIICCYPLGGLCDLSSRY

For `CN1CCC(Cc2ccccc2F)(N2CCN(C(=O)[C@@H](Cc3ccc(Cl)cc3)NC(=O)CC3NCc4ccccc43)CC2)CC1` (stereo partly drawn) [Example 4I], on MC4 [1], a half-maximal effect (EC50) was put at 0.0189 µM and the “% Rel. Eff.” value was 114%. This molecule showed a Ki on MC4 [2] of 0.0243 µM.
In the same order, the values of `CC(C)CC1(N2CCN(C(=O)[C@@H](Cc3ccc(Cl)cc3)NC(=O)CC3NCc4ccccc43)CC2)CCCC1` (stereo partly drawn) [Example 8I] are 0.0998 µM, 124% and 0.0288 µM.
`CN1CCC(CC2CCCCC2)(N2CCN(C(=O)[C@@H](Cc3ccc(Cl)cc3)NC(=O)CC3NCc4ccccc43)CC2)CC1` (stereo partly drawn) [Example 10I]: on MC4 [1], the EC50 came to 0.0254 µM and the “% Rel. Eff.” value is reported as 112%. At MC4 [2], this molecule displayed an inhibition constant (Ki) of 0.0065 µM.

One may read the EC50 as the midpoint of the concentration-response curve. A high value points to a less potent agent. What is called Ki is a dissociation constant, usually derived from enzyme kinetics or from competition with a known ligand. Read a low Ki as a stronger hold on the target.
